Reference: PubChem BioAssay (NCI)
Values joined by “and” are separate entries in the source; they are usually repeats but may differ in a detail not shown here. Identical values can stand only once.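 Interpolation was linear, between the two tested concentrations surrounding the appropriate level; five concentrations were tested over 48 hours in 96-well plates. TGI denotes the concentration required for complete inhibition of growth.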

What was measured:
Test in all cases: inhibition of tumour cell growth, NCI panel, 48 h
HT29 colon = system: HT29 colon
SR leukemia = system: SR leukemia
SK-MEL-28 melanoma = system: SK-MEL-28 melanoma
HL-60(TB) leukemia = system: HL-60(TB) leukemia
HCC-2998 colon = system: HCC-2998 colon
HCT-15 colon = system: HCT-15 colon
A498 renal = system: A498 renal
MCF7 breast = system: MCF7 breast
NCI-H226 lung = system: NCI-H226 lung
HCT-116 colon = system: HCT-116 colon

Structure (SMILES)	TGI (HT29 colon)	TGI (SR leukemia)	TGI (SK-MEL-28 melanoma)	TGI (HL-60(TB) leukemia)	TGI (HCC-2998 colon)	TGI (HCT-15 colon)	TGI (A498 renal) [µM]	TGI (MCF7 breast)	TGI (NCI-H226 lung)	TGI (HCT-116 colon)
CN(CCn1cnc2c1c(=O)n(C)c(=O)n2C)C1CCCCC1	> 100 µM	> 100 µM	> 100 µM	> 100 µM	> 100 µM	> 100 µM	> 100	> 100 µM	> 100 µM	> 100 µM
CCCCCCCCOC1C(O)C(O)C(O)C(O)C12CO2 (stereo unspecified)	> 100 µM	> 100 µM	> 100 µM	> 100 µM	> 100 µM	> 100 µM	> 100	> 100 µM	> 100 µM	> 100 µM
CC(=O)OC(/C=C/c1ccccc1)P1(=O)N(CC(C)(C)C)[C@@H]2CCCC[C@H]2N1CC(C)(C)C (stereo partly specified)	17.6 µM and 15.6 µM	19.5 µM and 14.5 µM	34.4 µM and 28.5 µM	21.6 µM and 18.7 µM	16.1 µM and 8.6 µM	20.9 µM and 17.6 µM	21.8	16 µM and 17.5 µM	21.8 µM and 25.7 µM	15 µM and 13.4 µM
CCOC(=O)C1=CNC(C(=O)OCC)C1c1cccn1-c1ccc(Cl)cc1[N+](=O)[O-] (stereo unspecified)	30.8 µM	61.8 µM	53.1 µM	–	51.9 µM	46.6 µM	> 100	60.6 µM	50 µM	35.7 µM
S=C(NC1=NCC(CN2CCN(c3ccccc3)CC2)O1)Nc1ccccc1 (stereo unspecified)	> 100 µM	> 100 µM	> 100 µM	> 100 µM	> 100 µM	> 100 µM	> 100	> 100 µM	> 100 µM	> 100 µM
O=C1CCC2(CC1CC(Sc1ccccc1)Sc1ccccc1)OCCO2 (stereo unspecified)	> 100 µM	87.5 µM	> 100 µM	46 µM	> 100 µM	> 100 µM	> 100	> 100 µM	> 100 µM	–
COC(=O)CCC(=O)NC1=C(NCc2ccccc2)C(=O)c2ccccc2C1=O	> 100 µM	> 100 µM	> 100 µM	> 100 µM	> 100 µM	51.5 µM	> 100	58.2 µM	> 100 µM	> 100 µM
Nc1nc(Cl)c(N)c(NCC2(CO)CC(OCc3ccccc3)C2)n1 (stereo unspecified)	> 100 µM	> 100 µM	> 100 µM	> 100 µM	> 100 µM	> 100 µM	> 100	> 100 µM	> 100 µM	> 100 µM
COC(=O)/C=C\n1c(C)cc(=O)[nH]c1=O	> 100 µM	> 100 µM	> 100 µM	–	> 100 µM	> 100 µM	> 100	89 µM	> 100 µM	> 100 µM
O=C(c1ccccc1)N1CCN(C(=S)N(C(=O)c2ccccc2)c2ccccc2)C1=S	31.2 µM	> 100 µM	9.55 µM	3.81 µM	14.5 µM	7.76 µM	13.4	10 µM	32 µM	12.6 µM
COC(=O)CCC(=O)NC1=C(Nc2ccc(OC)cc2)C(=O)c2ccccc2C1=O	30.1 µM	> 75.9 µM	31.4 µM	> 68 µM	35.7 µM	21.4 µM	33.6	18.8 µM	35.3 µM	25 µM
CCCCc1ccc(Nc2nc3c(ncn3C3CC(O)C(CN=[N+]=[N-])O3)c(=O)[nH]2)cc1 (stereo unspecified)	> 100 µM	> 100 µM	> 100 µM	> 100 µM	> 100 µM	> 100 µM	> 100	> 100 µM	> 100 µM	> 100 µM
COC(=O)C(Cc1c(C2Nc3ccccc3C2CC(NC(=O)CNC(C)=O)C(=O)OC)[nH]c2ccccc12)NC(=O)CNC(C)=O (stereo unspecified)	> 100 µM	> 100 µM	> 100 µM	> 100 µM	> 100 µM	> 100 µM	> 100	> 100 µM	> 100 µM	> 100 µM
CC[C@H](O)[C@H](C)C=C1SCCCS1	> 100 µM	> 100 µM	> 100 µM	89.7 µM	> 100 µM	> 100 µM	> 100	> 100 µM	> 100 µM	> 100 µM
CCOC(=O)c1ccc(Nc2c3c(nc4ccccc24)CCCC3)cc1	> 100 µM	> 100 µM	> 100 µM	> 100 µM	> 100 µM	> 100 µM	> 92.2	> 100 µM	> 100 µM	> 100 µM
COc1ccc2nc3c([N+](=O)[O-])ccc4c3c(c2c1)NCCN4CCO	2.02 µM	0.455 µM	2.03 µM	1.25 µM	1.91 µM	2.68 µM	2	3.19 µM	0.958 µM	1.22 µM
COC(=O)C1=C(C(=O)OC)C(C(=O)c2ccc(Br)cc2)N2N=C(c3ccc(Cl)cc3)C=CC12 (stereo unspecified)	–	> 100 µM	> 100 µM	> 100 µM	> 100 µM	> 100 µM	> 100	> 100 µM	> 100 µM	> 100 µM
